Among the data in PubChem BioAssay (NCI) are TGI values, retold here.

Test systems include SN12C renal; SK-OV-3 ovarian; SK-MEL-5 melanoma; CAKI-1 renal; SK-MEL-2 melanoma; HS 578T breast; NCI-H522 lung; RPMI-8226 leukemia; MALME-3M melanoma; COLO 205 colon.
Assay in all cases: inhibition of tumour cell growth, NCI panel, 48 h

Each structure is given as a SMILES string.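 Where inhibition never reached the appropriate level, the endpoint shown equals the highest concentration tested. Otherwise, values were interpolated linearly from a five-concentration, 48-hour dose response in 96-well plates. The concentration for full growth arrest is given as TGI.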

In the case of `N#Cc1ncn(-c2ccccc2)c1N`, the TGI with SN12C renal, in the test with SK-OV-3 ovarian, in the test on SK-MEL-5 melanoma, in the test on CAKI-1 renal, in the test with SK-MEL-2 melanoma and in the test with HS 578T breast was > 100 µM in each case. Further, the TGI in the test on NCI-H522 lung, with RPMI-8226 leukemia, in the test on MALME-3M melanoma and in the test on COLO 205 colon was > 100 µM each time.

Regarding `CC[C@@H](CCCC[C@@H]1CC[C@H]2CC(=O)C[C@@H]12)OC`, the TGI with SN12C renal, in the test on SK-OV-3 ovarian, in the test on SK-MEL-5 melanoma, with CAKI-1 renal, in the test with SK-MEL-2 melanoma and with HS 578T breast was > 100 µM throughout. Also, the TGI in the test with NCI-H522 lung, with RPMI-8226 leukemia, in the test on MALME-3M melanoma and with COLO 205 colon was > 100 µM in each case.

Take `O=C1NCC2(CCNCC2)N1c1ccccc1`: the TGI with SN12C renal, with SK-MEL-5 melanoma, in the test on CAKI-1 renal, in the test on SK-MEL-2 melanoma, in the test on HS 578T breast and in the test with NCI-H522 lung was > 100 µM throughout. For the same compound, the TGI in the test with RPMI-8226 leukemia, in the test on MALME-3M melanoma and in the test with COLO 205 colon was > 100 µM each time.

For the compound `COc1cc([C@@H]2c3cc4c(cc3[C@H](OC3OC5COC(C(C)C)OC5C(O)C3O)C3COC(=O)[C@@H]32)OCO4)cc(OC)c1O` (stereo not given in full), the TGI came to 39.1 µM in the test with SK-OV-3 ovarian; 22.6 µM with SK-MEL-5 melanoma; 19.2 µM in the test on CAKI-1 renal; 31.5 µM in the test on SK-MEL-2 melanoma; 42.3 µM with HS 578T breast; 37.1 µM with NCI-H522 lung. For the same compound, the figures for the TGI in the test on RPMI-8226 leukemia, in the test on MALME-3M melanoma and with COLO 205 colon were 42.5 µM, 36 µM and 19.9 µM, respectively.

As for `CCC1(OC(=O)CN2CCN(CCO)CC2)C(=O)OCc2c1cc1n(c2=O)Cc2cc3ccccc3nc2-1` (stereo not given), the TGI was 29.8 µM in the test with SN12C renal; 14.7 µM with SK-OV-3 ovarian; 1.15 µM with SK-MEL-5 melanoma; 9.52 µM in the test on SK-MEL-2 melanoma; > 85.8 µM with HS 578T breast; 3.05 µM in the test on NCI-H522 lung. The TGI in the test with RPMI-8226 leukemia worked out at 5.28 µM; in the test on MALME-3M melanoma, 12 µM; in the test on COLO 205 colon, 15.5 µM.

With `CN(C)CCOc1ccc(I)cc1Cc1ccccc1`, the TGI was 25 µM in the test with SN12C renal; 33 µM in the test on SK-OV-3 ovarian; 14.2 µM in the test on SK-MEL-5 melanoma; 30.7 µM in the test with SK-MEL-2 melanoma; 29.3 µM with HS 578T breast; 25 µM with NCI-H522 lung. The TGI in the test on RPMI-8226 leukemia is 23.9 µM; in the test on MALME-3M melanoma, 29.9 µM; in the test on COLO 205 colon, 26.7 µM.

For the compound `CCCCCCCCCCCCCCCC(=O)ON1C(=S)NC(C)(c2ccccc2)C1=S` (stereo not given), the TGI in the test on SN12C renal, with SK-OV-3 ovarian, with SK-MEL-5 melanoma, with CAKI-1 renal, with SK-MEL-2 melanoma and with HS 578T breast was > 100 µM in each case. Besides, the TGI in the test with RPMI-8226 leukemia, in the test with MALME-3M melanoma and in the test with COLO 205 colon was > 100 µM throughout.

Take `CC(=O)OCC1OC(Nc2ccc3nc(C)n(-c4cccc(C)c4)c(=O)c3c2)C(OC(C)=O)C(OC(C)=O)C1OC(C)=O` (stereo not given): the TGI in the test with SN12C renal, in the test with SK-MEL-5 melanoma, in the test with CAKI-1 renal, with SK-MEL-2 melanoma, in the test with HS 578T breast and in the test on NCI-H522 lung was > 62.5 µM each time. Also, the TGI in the test with RPMI-8226 leukemia, in the test on MALME-3M melanoma and with COLO 205 colon was > 62.5 µM in each case.

`CN1CCN(c2nc3ccccc3nc2C(=O)c2ccc(Cl)cc2)CC1`: the TGI was > 100 µM with SK-OV-3 ovarian; 52.7 µM with SK-MEL-5 melanoma; > 100 µM with CAKI-1 renal; > 100 µM with SK-MEL-2 melanoma; > 100 µM with HS 578T breast; > 100 µM in the test on NCI-H522 lung. The TGI in the test on RPMI-8226 leukemia is 77.4 µM; in the test on MALME-3M melanoma, 48.1 µM; in the test on COLO 205 colon it was > 100 µM.

As to `O=S(=O)(c1cc(Cl)ccc1Cl)N1CCN(c2ccc(Cl)c(Cl)c2)CC1`, the TGI in the test on SN12C renal is > 100 µM; with SK-MEL-5 melanoma, 51.5 µM; in the test with CAKI-1 renal, 45.3 µM; in the test with HS 578T breast it was > 100 µM; in the test with NCI-H522 lung it was 56.5 µM; in the test with RPMI-8226 leukemia, > 100 µM. In addition, in the test with MALME-3M melanoma, the TGI was > 100 µM.

In the case of `Cc1nc2c(o1)C(=O)c1ccccc1C2=NC1CCCCC1N` (stereo not given), the TGI amounted to 1.16 µM with SN12C renal; 0.252 µM with SK-MEL-5 melanoma; 3.12 µM with CAKI-1 renal; 2.53 µM in the test with SK-MEL-2 melanoma; 2.76 µM in the test with HS 578T breast; 2.33 µM in the test on NCI-H522 lung. Besides, the TGI with RPMI-8226 leukemia was 4.2 µM; with MALME-3M melanoma, 0.275 µM; with COLO 205 colon it was 3.08 µM.

Regarding `COC(=O)c1ccc2c(c1)CC1(C2)Cc2cc3c(c(C(=O)OC)c2C1)CCCC3` (stereo not given), the TGI with SN12C renal is > 100 µM; with SK-OV-3 ovarian, > 100 µM; in the test on SK-MEL-5 melanoma it was 42 µM; in the test with CAKI-1 renal it was > 100 µM; with HS 578T breast it was > 100 µM; in the test with NCI-H522 lung, > 100 µM. Moreover, the TGI in the test with RPMI-8226 leukemia, in the test with MALME-3M melanoma and with COLO 205 colon was > 100 µM each time.

For `O=C(O)C(Cc1ccc2c(c1)CCC2)(Cc1ccc2c(c1)CCC2)C(=O)O`, the TGI in the test on SN12C renal, in the test with SK-OV-3 ovarian, in the test with SK-MEL-5 melanoma, in the test with SK-MEL-2 melanoma, with HS 578T breast and in the test on NCI-H522 lung was > 100 µM in each case. Also, the TGI with RPMI-8226 leukemia, in the test on MALME-3M melanoma and with COLO 205 colon was > 100 µM each time.

For the compound `NS(=O)(=O)c1ccc(NC(=O)c2cc([N+](=O)[O-])cc([N+](=O)[O-])c2)cc1`, the TGI is 90.7 µM in the test on SN12C renal; > 100 µM with SK-OV-3 ovarian; > 100 µM with SK-MEL-5 melanoma; > 100 µM in the test on CAKI-1 renal; > 100 µM in the test on SK-MEL-2 melanoma; > 100 µM with HS 578T breast. Also, the TGI in the test with RPMI-8226 leukemia was > 100 µM; in the test with MALME-3M melanoma, 57.2 µM; with COLO 205 colon, 51.8 µM.

Take `CC(C)Nc1[nH]c(C(=O)c2ccccc2)c(N)c1C(=S)Nc1ccccc1`: the TGI was > 100 µM with SN12C renal; > 100 µM in the test with SK-OV-3 ovarian; 74.1 µM with SK-MEL-5 melanoma; > 100 µM in the test on CAKI-1 renal; 52.1 µM in the test with SK-MEL-2 melanoma; > 100 µM in the test with HS 578T breast. For the same compound, the TGI in the test on NCI-H522 lung was > 100 µM; with MALME-3M melanoma, 43.8 µM; with COLO 205 colon, 97.5 µM.
